The target in test [1] is T1, Protein cereblon/Tyrosine-protein kinase BTK (Homo sapiens, UniProt Q06187+Q96SW2). Nature of the test: PROTAC activity at CRBN/BTK in human TMD8 cells assessed as maximal degradation of BTK protein incubated for 4 hrs by HTRF assay relative to control. In kind it is cell-based. A general note: In TR-FRET formats the signal depends on donor and acceptor labels being close together.
Target sequence in this assay (Q06187 2-659 limits assumed): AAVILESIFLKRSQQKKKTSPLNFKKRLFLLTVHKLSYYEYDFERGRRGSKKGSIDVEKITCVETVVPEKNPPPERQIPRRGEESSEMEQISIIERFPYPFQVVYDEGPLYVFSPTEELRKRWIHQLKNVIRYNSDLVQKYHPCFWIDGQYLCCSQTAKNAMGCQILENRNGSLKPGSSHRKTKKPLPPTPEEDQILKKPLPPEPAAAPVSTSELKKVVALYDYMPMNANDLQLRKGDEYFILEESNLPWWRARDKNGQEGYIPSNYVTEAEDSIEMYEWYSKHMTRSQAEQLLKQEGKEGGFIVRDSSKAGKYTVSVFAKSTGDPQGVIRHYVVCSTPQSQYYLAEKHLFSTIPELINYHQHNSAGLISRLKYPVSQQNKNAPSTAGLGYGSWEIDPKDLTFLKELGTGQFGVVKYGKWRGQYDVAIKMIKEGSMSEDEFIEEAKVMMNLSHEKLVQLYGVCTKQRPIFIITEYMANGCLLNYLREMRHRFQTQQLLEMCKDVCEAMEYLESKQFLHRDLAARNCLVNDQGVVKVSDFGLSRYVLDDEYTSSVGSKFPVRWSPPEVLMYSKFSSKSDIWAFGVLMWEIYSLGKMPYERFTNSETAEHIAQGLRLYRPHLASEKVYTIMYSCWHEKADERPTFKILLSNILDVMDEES
Target sequence in this assay (Q96SW2 whole entry partner): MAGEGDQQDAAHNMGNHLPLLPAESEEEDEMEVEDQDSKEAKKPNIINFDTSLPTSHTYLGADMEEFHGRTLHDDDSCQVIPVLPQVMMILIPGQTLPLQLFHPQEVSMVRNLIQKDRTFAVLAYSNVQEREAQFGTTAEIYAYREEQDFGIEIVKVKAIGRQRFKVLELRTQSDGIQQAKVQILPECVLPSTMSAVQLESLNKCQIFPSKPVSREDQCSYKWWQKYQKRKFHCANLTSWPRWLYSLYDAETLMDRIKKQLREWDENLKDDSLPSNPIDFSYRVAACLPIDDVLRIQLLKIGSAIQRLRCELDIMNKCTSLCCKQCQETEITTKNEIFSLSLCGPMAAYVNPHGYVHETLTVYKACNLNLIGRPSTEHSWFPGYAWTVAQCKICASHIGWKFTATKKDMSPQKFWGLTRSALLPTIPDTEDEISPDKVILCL

The target in test [2] is T1, Protein cereblon/Tyrosine-protein kinase BTK. The test can be described thus: PROTAC activity at CRBN/BTK in human TMD8 cells assessed as degradation of BTK protein incubated for 4 hrs by HTRF assay. The class given is cell-based.
Target sequence in this assay (Q06187 whole entry): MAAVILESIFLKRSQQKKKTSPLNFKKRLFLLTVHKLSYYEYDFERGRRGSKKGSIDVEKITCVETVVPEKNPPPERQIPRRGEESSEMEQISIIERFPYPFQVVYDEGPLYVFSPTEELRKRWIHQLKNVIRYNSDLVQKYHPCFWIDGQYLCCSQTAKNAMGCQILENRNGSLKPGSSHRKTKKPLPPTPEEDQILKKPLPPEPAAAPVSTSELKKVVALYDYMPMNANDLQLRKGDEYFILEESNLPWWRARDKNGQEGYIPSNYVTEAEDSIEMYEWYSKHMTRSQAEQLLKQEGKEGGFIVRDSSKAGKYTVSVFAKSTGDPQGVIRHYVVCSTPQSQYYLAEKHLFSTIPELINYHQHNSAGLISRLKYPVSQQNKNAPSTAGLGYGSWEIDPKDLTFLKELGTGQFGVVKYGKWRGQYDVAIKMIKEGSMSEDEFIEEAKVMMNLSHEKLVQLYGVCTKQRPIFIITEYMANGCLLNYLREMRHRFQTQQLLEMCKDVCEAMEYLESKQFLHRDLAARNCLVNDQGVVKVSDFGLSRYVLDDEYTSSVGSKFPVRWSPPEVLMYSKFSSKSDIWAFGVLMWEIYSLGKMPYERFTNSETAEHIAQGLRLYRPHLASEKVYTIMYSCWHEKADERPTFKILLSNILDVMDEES
Target sequence in this assay (Q96SW2 whole entry): as the sequence (Q96SW2 whole entry partner) above
For test [3] the target is unchanged. Nature of the test: PROTAC activity at CRBN/BTK in human Ramos cells assessed as degradation of BTK protein incubated for 4 hrs by HTRF assay. The class given is cell-based.
Target sequence in this assay (Q06187 whole entry): as the sequence (Q06187 whole entry) above
Target sequence in this assay (Q96SW2 whole entry): as the sequence (Q96SW2 whole entry partner) above
Test [4] has the same target. Nature of the test: PROTAC activity at CRBN/BTK in human Ramos cells assessed as maximal degradation of BTK protein incubated for 4 hrs by HTRF assay relative to control. The class given is cell-based.
Target sequence in this assay (Q06187 2-659 limits assumed): as the sequence (Q06187 2-659 limits assumed) above
Target sequence in this assay (Q96SW2 whole entry partner): as the sequence (Q96SW2 whole entry partner) above
The target of test [5] is T2, Protein cereblon/Zinc finger protein Aiolos (Homo sapiens, UniProt Q96SW2+Q9UKT9). Nature of the test: PROTAC activity at CRBN/IKZF3 in human T cell assessed as maximal degradation of IKZF3 protein incubated for 24 hrs by flow cytometry relative to control. The class given is cell-based. (A flow cytometer gives signals particle by particle.)
Target sequence in this assay (Q96SW2 whole entry, looked up): as the sequence (Q96SW2 whole entry partner) above
Target sequence in this assay (Q9UKT9 whole entry, looked up): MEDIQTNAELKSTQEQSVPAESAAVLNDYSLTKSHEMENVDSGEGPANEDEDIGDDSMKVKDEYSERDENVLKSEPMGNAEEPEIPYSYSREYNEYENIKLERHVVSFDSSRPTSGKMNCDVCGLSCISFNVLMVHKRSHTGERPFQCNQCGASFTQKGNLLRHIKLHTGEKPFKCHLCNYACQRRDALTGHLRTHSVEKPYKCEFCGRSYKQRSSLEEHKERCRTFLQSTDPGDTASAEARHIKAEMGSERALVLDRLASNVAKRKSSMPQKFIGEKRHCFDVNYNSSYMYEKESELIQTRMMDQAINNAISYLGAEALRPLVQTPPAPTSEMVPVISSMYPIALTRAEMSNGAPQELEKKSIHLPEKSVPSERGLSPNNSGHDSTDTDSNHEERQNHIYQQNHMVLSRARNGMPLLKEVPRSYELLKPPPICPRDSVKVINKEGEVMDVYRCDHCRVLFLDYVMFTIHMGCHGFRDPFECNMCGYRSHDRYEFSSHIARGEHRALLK
In test [6] the target is T2, Protein cereblon/Zinc finger protein Aiolos. Nature of the test: PROTAC activity at CRBN/IKZF3 in human T cell assessed as degradation of IKZF3 protein incubated for 24 hrs by flow cytometry. The class given is cell-based.
Target sequence in this assay (Q96SW2 whole entry): as the sequence (Q96SW2 whole entry partner) above
Target sequence in this assay (Q9UKT9 whole entry): as the sequence (Q9UKT9 whole entry, looked up) above
Test [7] addresses T3, Protein cereblon/Tyrosine-protein kinase BTK (Mus musculus) (UniProt P35991+Q8C7D2). The test can be described thus: In vivo protac activity at CRBN/BTK in BALB/c mouse assessed as remaining BTK protein in blood at 3 mg/kg,po administration measured after 6 hrs by flow cytomtery relative to control. In kind it is functional, organism-based.
Test [8] concerns the target T3, Protein cereblon/Tyrosine-protein kinase BTK (Mus musculus). Nature of the test: In vivo protac activity at CRBN/BTK in BALB/c mouse assessed as remaining BTK protein in splenocyte at 3 mg/kg,po administration measured after 6 hrs by HTRF assay relative to control. In kind it is functional, organism-based.
Test [9] relates to TMD8. The test can be described thus: Antitumor activity against human TMD8 cells expressing wild type BTK xenografted in CB17-SCID mouse assessed as tumor growth inhibition at 30 mg/kg,po administration for 25 days. Conditions: TMD8, 600 h, time 25 day, read-out: TGI. The class given is functional.
The test system of test [10] is TMD8. The test can be described thus: Antitumor activity against human TMD8 cells expressing BTK C481S mutant xenografted in CB17-SCID mouse assessed as tumor growth inhibition at 30 mg/kg,po administration for 25 days. The class given is functional. As to conditions: time 25.0 day. A general note: In xenograft studies the graft and the host belong to different species.

The values below come from ChEMBL document CHEMBL5344441, “Discovery and Preclinical Pharmacology of NX-2127, an Orally Bioavailable Degrader of Bruton's Tyrosine Kinase with Immunomodulatory Activity for the Treatment of Patients with B Cell Malignancies” (J Med Chem, 2024).

Active and inactive are the calls of the source. No cut-off for these calls is given here.

T3 sequence (P35991 whole entry, looked up): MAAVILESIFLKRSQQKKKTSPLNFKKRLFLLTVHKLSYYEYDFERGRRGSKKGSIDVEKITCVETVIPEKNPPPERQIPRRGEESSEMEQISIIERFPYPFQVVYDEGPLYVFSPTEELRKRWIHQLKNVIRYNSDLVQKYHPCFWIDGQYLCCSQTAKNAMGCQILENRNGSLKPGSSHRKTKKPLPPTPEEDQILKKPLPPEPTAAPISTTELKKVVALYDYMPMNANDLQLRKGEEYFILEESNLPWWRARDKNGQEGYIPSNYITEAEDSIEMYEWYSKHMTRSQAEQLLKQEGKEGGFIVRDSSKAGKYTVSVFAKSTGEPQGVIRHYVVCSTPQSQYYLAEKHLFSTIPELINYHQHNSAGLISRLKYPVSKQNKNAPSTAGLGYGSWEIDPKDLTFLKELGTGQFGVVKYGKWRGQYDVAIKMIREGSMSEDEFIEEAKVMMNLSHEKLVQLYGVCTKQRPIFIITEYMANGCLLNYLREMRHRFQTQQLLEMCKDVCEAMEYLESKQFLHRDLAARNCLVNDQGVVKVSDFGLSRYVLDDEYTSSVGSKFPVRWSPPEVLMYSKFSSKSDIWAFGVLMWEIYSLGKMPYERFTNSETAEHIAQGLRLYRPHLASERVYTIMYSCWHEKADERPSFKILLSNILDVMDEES
T3 sequence (Q8C7D2 whole entry, looked up): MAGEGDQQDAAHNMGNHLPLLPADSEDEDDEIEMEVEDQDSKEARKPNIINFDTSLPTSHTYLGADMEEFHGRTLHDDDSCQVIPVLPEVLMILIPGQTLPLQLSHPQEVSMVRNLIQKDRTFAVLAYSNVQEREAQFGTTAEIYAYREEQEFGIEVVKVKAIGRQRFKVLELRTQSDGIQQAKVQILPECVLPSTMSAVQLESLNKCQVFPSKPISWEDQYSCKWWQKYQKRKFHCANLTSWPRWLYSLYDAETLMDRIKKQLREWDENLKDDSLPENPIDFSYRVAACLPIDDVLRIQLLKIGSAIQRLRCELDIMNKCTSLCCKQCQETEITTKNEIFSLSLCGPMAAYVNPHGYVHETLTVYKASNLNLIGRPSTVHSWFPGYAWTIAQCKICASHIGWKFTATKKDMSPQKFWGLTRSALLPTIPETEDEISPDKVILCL

What is called Emax is the greatest response seen or fitted, relative to the assay's reference. In general, DC50 refers to the concentration at which degradation of the target reaches its halfway point. Regarding `CN1CCN([C@@H]2CCCN(c3cnc(C(N)=O)c(Nc4ccc(C5CCN(Cc6ccc7c(c6)C(=O)N(C6CCC(=O)NC6=O)C7=O)CC5)cc4)n3)C2)C1=O` (stereo partly drawn), in test [1], the Emax was 76%. For the same molecule, the DC50 in test [2] was found to be 17 nM.
On to `Cc1[nH]c2c(C(N)=O)ccc(N3CCC[C@H](NC(=O)CCCCCCc4cccc5c4CN(C4CCC(=O)NC4=O)C5=O)C3)c2c1C` (stereo partly drawn), for which the DC50 in [3] was greater than 10000 nM. In addition, the Emax in test [4] was less than 20%.
Turning to `CN1CCN([C@@H]2CCCN(c3cnc(C(N)=O)c(Nc4ccc(C5CCN(C(=O)CCOCCNc6cccc7c6C(=O)N(C6CCC(=O)NC6=O)C7=O)CC5)cc4)n3)C2)C1=O` (stereo partly drawn), the Emax was found to be 99% in test [5] and 80% in test [4]. In addition, in [3], the DC50 stood at 6.3 nM.
As to `Nc1ncnc2c1c(-c1ccc(Oc3ccccc3)cc1)nn2C1CCN(C(=O)CCOCCOCCOCCOCCOCCNc2cccc3c2C(=O)N(C2CCC(=O)NC2=O)C3=O)CC1` (stereo not drawn), the DC50 in test [3] worked out at 32 nM. In [4], the Emax was 88%.
For the molecule `CN1CCN([C@@H]2CCCN(c3cnc(C(N)=O)c(Nc4ccc(C5CCN(C[C@H]6CC[C@H](Nc7cccc8c7C(=O)N(C7CCC(=O)NC7=O)C8=O)CC6)CC5)cc4)n3)C2)C1=O` (stereo partly drawn), the results for the Emax in test [5] and in test [4] were 85% and 90%, respectively. Besides, the DC50 in test [6] worked out at 40 nM; in test [3], 1.6 nM.
For the molecule `CN1CCN([C@@H]2CCCN(c3cnc(C(N)=O)c(Nc4ccc(C5CCN(CCCNc6cccc7c6C(=O)N(C6CCC(=O)NC6=O)C7=O)CC5)cc4)n3)C2)C1=O` (stereo partly drawn), the Emax is 87% in [5] and 95% in [4]. The DC50 came to 11 nM in [6] and 2.4 nM in test [3].
Take `CN1CCN([C@@H]2CCCN(c3cnc(C(N)=O)c(Nc4ccc(C5CCN(C[C@@H]6CCN(c7ccc8c(c7)C(=O)N(C7CCC(=O)NC7=O)C8=O)C6)CC5)cc4)n3)C2)C1=O` (stereo partly drawn): the DC50 in test [3] stood at 1.2 nM. Besides, the Emax in test [4] was determined as 93%.
On to `CN1CCN([C@@H]2CCCN(c3cnc(C(N)=O)c(Nc4ccc(C5CCN(CC6CCN(c7ccc8c(c7)C(=O)N(C7CCC(=O)NC7=O)C8=O)CC6)CC5)cc4)n3)C2)C1=O` (stereo partly drawn), for which the Emax in test [5] is 74%; in test [4] it was 94%. Further, the DC50 in test [6] was found to be 28 nM; in [3] it was 0.75 nM.
In the case of `CN1CCN([C@@H]2CCCN(c3cnc(C(N)=O)c(Nc4ccc(N5CCC6(CC5)CN(c5cccc7c5C(=O)N(C5CCC(=O)NC5=O)C7=O)C6)cc4)n3)C2)C1=O` (stereo partly drawn), the maximal response (Emax) in test [1] amounted to 50%.
As for `CN1CCN([C@@H]2CCCN(c3cnc(C(N)=O)c(Nc4cnn(C5CCN(CC6CCN(c7ccc8c(c7)C(=O)N(C7CCC(=O)NC7=O)C8=O)CC6)CC5)c4)n3)C2)C1=O` (stereo partly drawn), in test [1], the Emax came to 96%. Further, in test [7], the Activity was determined as 48%. In addition, in test [2], the DC50 is 0.63 nM.
As to `CN1CCN([C@@H]2CCCN(c3cnc(C(N)=O)c(Nc4ccc(C5(C)CCN(C[C@H]6CCN(c7ccc8c(c7)C(=O)N(C7CCC(=O)NC7=O)C8=O)C6)CC5)cc4)n3)C2)C1=O` (stereo partly drawn), in test [1], the Emax was 96%. In test [8], the Activity was 27%. The DC50 in test [2] turned out to be 0.6 nM.
`Cn1cc(-c2ccnc(-n3ncc4cc(C(C)(C)C)cc(F)c4c3=O)c2CO)cc(Nc2cc3n(n2)CCN(C(=O)CCOCCCc2cccc4c2CN(C2CCC(=O)NC2=O)C4=O)C3)c1=O` (stereo not drawn): in test [3], the 50% degradation concentration (DC50) amounted to 50 nM. In addition, the Emax in [4] worked out at 79%.
For `Cc1cccc(C[C@@H](NC(=O)c2ccc3[nH]ncc3c2)C(=O)N2Cc3[nH]c4ccccc4c3C[C@@H]2C(=O)NCCOCCOCCOCCOCCOCCOCCOCCNc2cccc3c2C(=O)N(C2CCC(=O)NC2=O)C3=O)c1` (stereo partly drawn), in that order: 2880 nM and 51%.
As to `CN1CCN([C@@H]2CCCN(c3cnc(C(N)=O)c(Nc4ccc(C5CCN(C[C@H]6CC[C@@H](Nc7cccc8c7C(=O)N(C7CCC(=O)NC7=O)C8=O)CC6)CC5)cc4)n3)C2)C1=O` (stereo partly drawn), the Emax in test [5] turned out to be 31%; in test [4], 88%. For the same molecule, the DC50 in [6] is greater than 2000 nM; in test [3], 7 nM.
As for `CN1CCN([C@@H]2CCCN(c3cnc(C(N)=O)c(Nc4ccc(C5CCN(C6CN(c7ccc8c(c7)C(=O)N(C7CCC(=O)NC7=O)C8=O)C6)CC5)cc4)n3)C2)C1=O` (stereo partly drawn), the results for the Emax in test [1], in test [5] and in test [4] were 96%, 74% and 91%, respectively. Besides, the figures for the DC50 in test [6], in test [2] and in test [3] were 32 nM, 1.2 nM and 1.4 nM, respectively. Besides, the Activity in [7] is 35%.
`C[C@H]1CN(C(=O)CCOCCCc2cccc3c2CN(C2CCC(=O)NC2=O)C3=O)CCN1c1ccc(Nc2cc(-c3ccnc(N4CCn5c(cc6c5CC(C)(C)C6)C4=O)c3CO)cn(C)c2=O)nc1` (stereo partly drawn): in test [3], the DC50 was determined as 7.2 nM. In addition, the Emax in test [4] amounted to 88%.
Consider `CN1CCN([C@@H]2CCCN(c3cnc(C(N)=O)c(Nc4ccc(N5CCC6(CC5)CCN(c5ccc7c(c5)C(=O)N(C5CCC(=O)NC5=O)C7=O)CC6)cc4)n3)C2)C1=O` (stereo partly drawn), for which the Emax in [1] and in test [4] was 96% throughout. Further, the Activity in test [8] was 18%. The DC50 came to 1.3 nM in test [2] and 0.9 nM in test [3].
`CN1CCN([C@@H]2CCCN(c3cnc(C(N)=O)c(Nc4ccc(N5CC6(C5)CN(c5ccc7c(c5)C(=O)N(C5CCC(=O)NC5=O)C7=O)C6)cc4)n3)C2)C1=O` (stereo partly drawn): the Emax in test [1] was found to be 97%; in test [5] it was 83%; in test [4], 94%. Also, the results for the DC50 in [6], in test [2] and in test [3] were 14 nM, 0.8 nM and 0.9 nM, respectively.
On to `CN1CCN([C@@H]2CCCN(c3cnc(C(N)=O)c(Nc4ccc(C5CCN(C[C@H]6CCN(c7ccc8c(c7)CN(C7CCC(=O)NC7=O)C8=O)C6)CC5)cc4)n3)C2)C1=O` (stereo partly drawn), for which the Emax in test [1] was 96%. Besides, the Activity in test [7] came to 49%. For the same molecule, the DC50 in test [2] turned out to be 0.25 nM.
As for `CN1CCN([C@@H]2CCCN(c3cnc(C(N)=O)c(Nc4ccc(C5CCN(C[C@H]6CCN(c7ccc8c(c7)C(=O)N(C7CCC(=O)NC7=O)C8=O)C6)CC5)nc4)n3)C2)C1=O` (stereo partly drawn), the Emax in test [1] was determined as 96%. For the same molecule, the Activity in test [8] was 46%. Further, the DC50 in test [2] was 1 nM.
Take `CN1CCN([C@@H]2CCCN(c3cnc(C(N)=O)c(Nc4ccc(C5CCN(CC6CN(c7ccc8c(c7)C(=O)N(C7CCC(=O)NC7=O)C8=O)C6)CC5)cc4)n3)C2)C1=O` (stereo partly drawn): the DC50 in test [3] came out at 0.8 nM. Moreover, the Emax in test [4] worked out at 97%.
On to `NC(=O)c1ncc(-c2nccs2)nc1Nc1ccc(C2CCN(C[C@H]3CCN(c4ccc5c(c4)C(=O)N(C4CCC(=O)NC4=O)C5=O)C3)CC2)cc1` (stereo partly drawn), for which, in test [1], the Emax stood at 95%. Besides, the Activity in test [7] was found to be 24%. Also, the DC50 in test [2] stood at 1.7 nM.
For the molecule `CN1CCN([C@@H]2CCCN(c3cnc(C(N)=O)c(Nc4ccc(C5CN(C6CCN(c7ccc8c(c7)C(=O)N(C7CCC(=O)NC7=O)C8=O)CC6)C5)cc4)n3)C2)C1=O` (stereo partly drawn), the Emax in test [1] is 96%; in test [5], 79%; in [4], 95%. In addition, the values for the 50% degradation concentration (DC50) in test [6], in test [2] and in test [3] were 28 nM, 0.53 nM and 0.9 nM, respectively. Also, the Activity in [7] worked out at 26%.
In the case of `C=CC(=O)N1CCC[C@@H](n2nc(-c3ccc(Oc4ccccc4)cc3)c3c(N)ncnc32)C1` [IBRUTINIB], the inhibition in vivo at 30 mg/kg with TMD8 [9] was 55%. Further, the outcome in the test with TMD8 [10] was inactive.
`CN1CCN([C@@H]2CCCN(c3cnc(C(N)=O)c(Nc4ccc5c(c4)CCN(CC4CCN(c6ccc7c(c6)C(=O)N(C6CCC(=O)NC6=O)C7=O)CC4)C5)n3)C2)C1=O` (stereo partly drawn): the Emax in test [1] was determined as 96%; in [5], 86%; in test [4] it was 95%. For the same molecule, the DC50 turned out to be 14 nM in [6], 1.2 nM in test [2] and 2.4 nM in test [3]. For the same molecule, the Activity in [7] turned out to be 68%.
On to `CN1CCN([C@@H]2CCCN(c3cnc(C(N)=O)c(Nc4ccc(N5CCC6(CCN(c7ccc8c(c7)C(=O)N(C7CCC(=O)NC7=O)C8=O)CC6)CC5)nc4)n3)C2)C1=O` (stereo partly drawn), for which, in [1], the Emax came to 94%. For the same molecule, the Activity in test [7] was determined as 96%. For the same molecule, in test [2], the DC50 turned out to be 4.3 nM.
